Source: patent US10537563B2, “Methods for treating ocular disease using inhibitors of CSF-1R” (NOVARTIS AG, priority 2016, dated 2020)

Experiments:
Src = Src (Homo sapiens, UniProt P12931); test: In vitro kinase assay (Table 1); type: biochemical
MMP-9 [1] = test: MMP-9 production by human monocytes (ELISA); type: cell-based; settings: Monocyte
Method: (§1) Freshly isolated human PBMCs were used to purify human monocytes by negative selection using an indirect magnetic labeling system. […] Soluble factors such as cytokines (VEGFa, IL-6 etc.) and chemokines (IL-8, MCP-1, MMP9 etc.) in the culture supernatant were measured using commercial ELISA kits. The in vitro survival of human macrophages was measured using a commercially available CellTiter-Glo® system. Most observed results were repeated in multiple donors (n>5).

p38alpha = p38alpha (Homo sapiens, UniProt Q16539); test: In vitro kinase assay (Table 1); type: biochemical
IGF-1R = IGF-1R (Homo sapiens, UniProt P08069); test: In vitro kinase assay (Table 1); type: biochemical
FGFR1 = FGFR1 (Homo sapiens, UniProt P11362); test: In vitro kinase assay (Table 1); type: biochemical
BaF-Tel-IGF1R = molecular target: T1, BaF-Tel-IGF1R (Homo sapiens, UniProt P08069); test: BaF3 proliferation assay; type: cell-based, murine
T1 construct: fused on or other part: P41212 (Transcription factor ETV6)

Syk (h) = molecular target: T2, Syk (h) (Homo sapiens, UniProt P43405); test: Kinase profiling at Invitrogen; type: biochemical
T2 construct: purchased Invitrogen

BAF/Tel-FLT1-Q1/sACP = molecular target: T3, BAF/Tel-FLT1-Q1/sACP (Homo sapiens, UniProt P17948); test: BaF3 proliferation assay; type: cell-based, murine
T3 construct: fused on or other part: P41212 (Transcription factor ETV6)

BAF/Tel-EphB2-Q2/sACP = molecular target: T4, BAF/Tel-EphB2-Q2/sACP (Homo sapiens, UniProt P29323); test: BaF3 proliferation assay; type: cell-based, murine
T4 construct: fused on or other part: P41212 (Transcription factor ETV6)

FGFR2 = FGFR2 (Homo sapiens, UniProt P21802); test: In vitro kinase assay (Table 1); type: biochemical
BAF/Tel-JAK2-1.2/sACP = molecular target: T5, BAF/Tel-JAK2-1.2/sACP (Homo sapiens, UniProt O60674); test: BaF3 proliferation assay; type: cell-based, murine
T5 construct: fused on or other part: P41212 (Transcription factor ETV6)

BAF/Bcr-Abl-Luc/sACP = molecular target: T6, BAF/Bcr-Abl-Luc/sACP (Homo sapiens, UniProt P00519); test: BaF3 proliferation assay; type: cell-based, murine
T6 construct: no part of the key; P11274 (Breakpoint cluster region protein)

PDK_1 = PDK_1 (Homo sapiens, UniProt O15530); test: In vitro kinase assay (Table 1); type: biochemical
TRKC = TRKC (Homo sapiens, UniProt Q16288); test: In vitro kinase assay (Table 1); type: biochemical
TSSK1 = TSSK1 (Homo sapiens, UniProt Q9BXA7); test: In vitro kinase assay (Table 1); type: biochemical
PKC_alpha = PKC_alpha (Homo sapiens, UniProt P17252); test: In vitro kinase assay (Table 1); type: biochemical
CSF-1 receptor = CSF-1 receptor expression on human monocytes; type: cell-based; settings: day 1 to day 3
Method: as §1

BAF/Tel-JAK3-S1.2/sACP = molecular target: T7, BAF/Tel-JAK3-S1.2/sACP (Homo sapiens, UniProt P52333); test: BaF3 proliferation assay; type: cell-based, murine
T7 construct: fused on or other part: P41212 (Transcription factor ETV6)

BAF/Tel-Ros-1.1/sACP = molecular target: T8, BAF/Tel-Ros-1.1/sACP (Homo sapiens, UniProt P08922); test: BaF3 proliferation assay; type: cell-based, murine
T8 construct: fused on or other part: P41212 (Transcription factor ETV6)

BAF/Tel-TRKC-Q2/sACP = molecular target: T9, BAF/Tel-TRKC-Q2/sACP (Homo sapiens, UniProt Q16288); test: BaF3 proliferation assay; type: cell-based, murine
T9 construct: fused on or other part: P41212 (Transcription factor ETV6)

BaF-Tel-KDR = molecular target: T10, BaF-Tel-KDR (Homo sapiens, UniProt P35968); test: BaF3 proliferation assay; type: cell-based, murine
T10 construct: fused on or other part: P41212 (Transcription factor ETV6)

Met (h) = molecular target: T11, Met (h) (Homo sapiens, UniProt P08581); test: Kinase profiling at Invitrogen; type: biochemical
T11 construct: purchased Invitrogen

MMP-9 [2] = test: MMP-9 production by human macrophages (ELISA); type: cell-based; settings: low dose (0.1 μM)
Method: as §1

Chk1 = Chk1 (Homo sapiens, UniProt O14757); test: In vitro kinase assay (Table 1); type: biochemical
Erk1 = Erk1 (Homo sapiens, UniProt P27361); test: In vitro kinase assay (Table 1); type: biochemical
BAF/Tel-MER-3.2 = molecular target: T12, BAF/Tel-MER-3.2 (Homo sapiens, UniProt Q12866); test: BaF3 proliferation assay; type: cell-based, murine
T12 construct: fused on or other part: P41212 (Transcription factor ETV6)

BAF/Tel-TIE2-1.2/sACP = molecular target: T13, BAF/Tel-TIE2-1.2/sACP (Homo sapiens, UniProt Q02763); test: BaF3 proliferation assay; type: cell-based, murine
T13 construct: fused on or other part: P41212 (Transcription factor ETV6)

TAK1 = TAK1 (Homo sapiens, UniProt O43318); test: In vitro kinase assay (Table 1); type: biochemical
CD206 = CD206 expression in M2a macrophages; type: cell-based, human
Method: as §1

BAF/Tel-FGFR2-Q1/sACP = molecular target: T14, BAF/Tel-FGFR2-Q1/sACP (Homo sapiens, UniProt P21802); test: BaF3 proliferation assay; type: cell-based, murine
T14 construct: fused on or other part: P41212 (Transcription factor ETV6)

CamKII alpha = CamKII alpha (Homo sapiens, UniProt Q9UQM7); test: In vitro kinase assay (Table 1); type: biochemical
PHKG2 = PHKG2 (Homo sapiens, UniProt P15735); test: In vitro kinase assay (Table 1); type: biochemical
BAF/bRaf Pim1-1/sACP = test: BaF3 proliferation assay; type: cell-based, murine; settings: Mus musculus
ROS = ROS (Homo sapiens, UniProt P08922); test: In vitro kinase assay (Table 1); type: biochemical
Plk1 = Plk1 (Homo sapiens, UniProt P53350); test: In vitro kinase assay (Table 1); type: biochemical
BaF-PTC3-RET = BaF-PTC3-RET (Homo sapiens, UniProt P07949); test: BaF3 proliferation assay; type: cell-based, murine

T11 sequence (P08581 25-1390): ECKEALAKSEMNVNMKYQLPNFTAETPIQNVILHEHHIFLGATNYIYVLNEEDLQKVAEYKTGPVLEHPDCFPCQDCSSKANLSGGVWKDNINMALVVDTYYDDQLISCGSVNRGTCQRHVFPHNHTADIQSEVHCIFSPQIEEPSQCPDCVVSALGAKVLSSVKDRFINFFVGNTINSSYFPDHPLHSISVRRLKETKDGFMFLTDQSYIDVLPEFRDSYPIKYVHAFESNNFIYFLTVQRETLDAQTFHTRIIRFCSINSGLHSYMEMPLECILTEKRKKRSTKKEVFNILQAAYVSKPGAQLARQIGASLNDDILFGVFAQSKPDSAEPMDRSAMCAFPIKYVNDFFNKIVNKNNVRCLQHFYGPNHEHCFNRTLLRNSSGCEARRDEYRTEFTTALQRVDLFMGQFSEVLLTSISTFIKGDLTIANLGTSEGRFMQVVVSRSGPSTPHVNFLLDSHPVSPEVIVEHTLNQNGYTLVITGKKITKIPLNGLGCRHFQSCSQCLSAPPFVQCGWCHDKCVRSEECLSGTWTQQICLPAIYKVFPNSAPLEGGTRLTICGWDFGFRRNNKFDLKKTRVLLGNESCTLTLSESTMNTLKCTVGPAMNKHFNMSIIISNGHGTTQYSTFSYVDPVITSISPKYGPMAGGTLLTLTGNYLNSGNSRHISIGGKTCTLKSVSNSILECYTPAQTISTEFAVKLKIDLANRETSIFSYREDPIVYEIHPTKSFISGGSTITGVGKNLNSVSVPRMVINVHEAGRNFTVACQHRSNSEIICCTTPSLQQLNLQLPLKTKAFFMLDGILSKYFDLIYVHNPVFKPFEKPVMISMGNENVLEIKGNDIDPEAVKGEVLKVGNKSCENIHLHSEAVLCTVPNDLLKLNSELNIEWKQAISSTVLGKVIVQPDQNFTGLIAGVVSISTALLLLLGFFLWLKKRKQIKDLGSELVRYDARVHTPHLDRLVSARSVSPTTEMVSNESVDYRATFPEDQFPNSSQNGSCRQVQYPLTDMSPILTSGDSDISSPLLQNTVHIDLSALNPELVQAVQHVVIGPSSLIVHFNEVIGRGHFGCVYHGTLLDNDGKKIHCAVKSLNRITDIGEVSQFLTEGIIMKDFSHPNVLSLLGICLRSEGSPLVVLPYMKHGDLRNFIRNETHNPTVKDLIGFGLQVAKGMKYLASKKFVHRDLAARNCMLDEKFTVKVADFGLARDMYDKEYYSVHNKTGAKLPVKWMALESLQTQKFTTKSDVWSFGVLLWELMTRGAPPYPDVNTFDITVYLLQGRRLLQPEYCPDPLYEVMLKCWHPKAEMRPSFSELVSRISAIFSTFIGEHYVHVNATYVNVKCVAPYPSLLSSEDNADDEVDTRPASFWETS
T4 sequence (P29323 621-884 limits assumed, change not shown): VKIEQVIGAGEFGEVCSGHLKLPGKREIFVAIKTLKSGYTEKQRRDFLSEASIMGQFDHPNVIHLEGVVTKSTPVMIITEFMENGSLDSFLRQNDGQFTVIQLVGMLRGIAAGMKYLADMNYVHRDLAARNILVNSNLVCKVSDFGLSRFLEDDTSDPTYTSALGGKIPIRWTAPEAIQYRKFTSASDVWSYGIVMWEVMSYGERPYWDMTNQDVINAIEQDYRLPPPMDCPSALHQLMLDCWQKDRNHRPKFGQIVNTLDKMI
T5 sequence (O60674 849-1124 limits assumed, change not shown): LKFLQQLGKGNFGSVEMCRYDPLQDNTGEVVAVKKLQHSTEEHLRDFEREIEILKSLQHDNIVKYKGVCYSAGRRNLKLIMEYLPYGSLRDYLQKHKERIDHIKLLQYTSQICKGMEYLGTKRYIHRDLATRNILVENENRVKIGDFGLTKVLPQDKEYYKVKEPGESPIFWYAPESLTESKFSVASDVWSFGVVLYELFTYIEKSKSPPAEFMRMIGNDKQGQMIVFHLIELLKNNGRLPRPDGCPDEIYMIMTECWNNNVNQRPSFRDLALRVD
PHKG2, sequence (P15735 whole entry, species assumed): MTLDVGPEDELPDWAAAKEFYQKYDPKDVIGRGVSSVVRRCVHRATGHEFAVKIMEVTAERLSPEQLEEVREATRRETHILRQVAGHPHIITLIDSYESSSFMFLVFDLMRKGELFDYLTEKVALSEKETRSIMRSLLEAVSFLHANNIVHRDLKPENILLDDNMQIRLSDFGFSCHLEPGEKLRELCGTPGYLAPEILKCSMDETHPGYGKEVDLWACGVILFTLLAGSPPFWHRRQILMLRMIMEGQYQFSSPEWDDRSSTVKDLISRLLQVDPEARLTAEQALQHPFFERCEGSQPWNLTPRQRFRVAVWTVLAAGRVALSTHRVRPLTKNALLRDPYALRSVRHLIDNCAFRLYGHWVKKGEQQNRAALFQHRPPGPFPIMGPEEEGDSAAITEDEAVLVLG
PDK_1, sequence (O15530 whole entry): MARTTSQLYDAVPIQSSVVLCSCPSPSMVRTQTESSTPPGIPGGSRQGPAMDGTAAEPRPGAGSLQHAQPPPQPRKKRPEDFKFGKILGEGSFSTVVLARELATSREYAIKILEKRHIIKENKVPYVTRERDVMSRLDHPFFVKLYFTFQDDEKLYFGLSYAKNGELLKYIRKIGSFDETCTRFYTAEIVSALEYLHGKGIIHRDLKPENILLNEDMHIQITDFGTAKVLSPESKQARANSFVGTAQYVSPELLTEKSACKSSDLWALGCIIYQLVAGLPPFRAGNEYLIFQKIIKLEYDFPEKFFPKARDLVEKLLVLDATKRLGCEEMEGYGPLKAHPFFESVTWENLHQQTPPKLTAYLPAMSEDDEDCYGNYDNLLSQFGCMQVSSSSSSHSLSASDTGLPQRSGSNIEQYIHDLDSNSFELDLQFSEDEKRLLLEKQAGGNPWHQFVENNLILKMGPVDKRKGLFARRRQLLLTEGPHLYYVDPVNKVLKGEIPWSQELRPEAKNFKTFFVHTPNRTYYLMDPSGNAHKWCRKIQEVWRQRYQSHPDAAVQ
T12 sequence (Q12866 587-858 limits assumed, change not shown): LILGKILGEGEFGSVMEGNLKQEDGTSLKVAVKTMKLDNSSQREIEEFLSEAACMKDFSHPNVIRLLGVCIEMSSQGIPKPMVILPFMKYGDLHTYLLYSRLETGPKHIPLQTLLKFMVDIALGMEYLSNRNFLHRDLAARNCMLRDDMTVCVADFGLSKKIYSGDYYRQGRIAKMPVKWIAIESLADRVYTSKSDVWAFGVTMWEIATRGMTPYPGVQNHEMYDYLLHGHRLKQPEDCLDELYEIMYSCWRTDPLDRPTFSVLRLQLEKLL
Erk1, sequence (P27361 whole entry, species assumed): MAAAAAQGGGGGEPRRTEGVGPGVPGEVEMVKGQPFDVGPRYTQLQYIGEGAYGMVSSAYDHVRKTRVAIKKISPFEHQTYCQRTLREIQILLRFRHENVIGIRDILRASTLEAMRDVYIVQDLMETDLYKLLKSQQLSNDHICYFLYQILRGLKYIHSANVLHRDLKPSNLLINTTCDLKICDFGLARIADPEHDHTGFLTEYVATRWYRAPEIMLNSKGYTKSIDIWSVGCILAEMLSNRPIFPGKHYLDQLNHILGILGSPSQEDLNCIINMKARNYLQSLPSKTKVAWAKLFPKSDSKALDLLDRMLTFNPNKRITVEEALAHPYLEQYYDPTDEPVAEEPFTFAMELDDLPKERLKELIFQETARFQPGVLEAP
Chk1, sequence (O14757 whole entry, species assumed): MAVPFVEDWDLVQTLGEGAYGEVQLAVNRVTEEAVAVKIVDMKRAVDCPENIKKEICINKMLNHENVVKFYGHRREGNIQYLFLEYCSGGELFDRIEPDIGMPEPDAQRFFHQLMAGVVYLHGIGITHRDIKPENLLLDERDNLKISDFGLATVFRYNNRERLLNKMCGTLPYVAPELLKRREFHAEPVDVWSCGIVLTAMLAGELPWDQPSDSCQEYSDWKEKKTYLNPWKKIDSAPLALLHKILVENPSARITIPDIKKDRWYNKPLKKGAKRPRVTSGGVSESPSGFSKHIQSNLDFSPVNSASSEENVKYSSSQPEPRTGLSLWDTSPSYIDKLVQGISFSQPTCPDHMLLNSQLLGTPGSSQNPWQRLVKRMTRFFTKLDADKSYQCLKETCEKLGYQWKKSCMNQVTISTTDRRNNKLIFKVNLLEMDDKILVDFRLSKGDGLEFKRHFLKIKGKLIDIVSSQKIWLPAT
T7 sequence (P52333 822-1111 limits assumed, change not shown): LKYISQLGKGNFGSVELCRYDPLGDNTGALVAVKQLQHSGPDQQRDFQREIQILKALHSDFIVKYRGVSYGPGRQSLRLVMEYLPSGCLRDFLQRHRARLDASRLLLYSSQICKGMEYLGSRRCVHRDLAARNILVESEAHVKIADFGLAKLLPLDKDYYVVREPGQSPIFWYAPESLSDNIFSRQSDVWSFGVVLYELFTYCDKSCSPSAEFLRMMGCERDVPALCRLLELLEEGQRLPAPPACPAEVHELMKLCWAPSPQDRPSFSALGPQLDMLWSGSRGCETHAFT
Src, sequence (P12931 whole entry, species assumed): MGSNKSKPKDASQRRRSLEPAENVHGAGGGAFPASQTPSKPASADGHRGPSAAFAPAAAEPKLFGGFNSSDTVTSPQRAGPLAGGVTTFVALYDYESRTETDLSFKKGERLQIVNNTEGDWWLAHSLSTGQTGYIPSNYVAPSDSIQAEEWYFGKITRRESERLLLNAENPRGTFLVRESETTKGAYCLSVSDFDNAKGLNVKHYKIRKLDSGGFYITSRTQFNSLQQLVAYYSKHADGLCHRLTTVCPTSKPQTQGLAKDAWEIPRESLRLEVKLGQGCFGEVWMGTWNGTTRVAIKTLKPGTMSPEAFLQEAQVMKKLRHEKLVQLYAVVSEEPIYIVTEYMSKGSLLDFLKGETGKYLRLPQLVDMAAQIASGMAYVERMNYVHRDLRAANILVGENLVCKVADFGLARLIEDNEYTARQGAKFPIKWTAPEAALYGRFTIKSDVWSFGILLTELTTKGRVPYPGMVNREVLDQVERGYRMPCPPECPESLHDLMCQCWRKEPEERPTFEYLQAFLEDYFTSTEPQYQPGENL

For `CNC(=O)c1cc(Oc2ccc3nc(NC4CCCCC4O)sc3c2)ccn1` (stereo not shown) [Compound (I)], the IC50 (Src) was > 10 µM, the inhibition at 0.05 µM (MMP-9 [1]) was 30 to 50% and the IC50 (p38alpha) was > 25 µM. The IC50 (IGF-1R) was > 10 µM, the IC50 (FGFR1) was > 25 µM and the EC50 (BaF-Tel-IGF1R) was > 10 µM. For the same molecule, the inhibition at 0.5 µM (Syk (h); read-out: % inhibition @ 0.5 μM, Syk (h)) was 32%, the inhibition at 5 µM (Syk (h); read-out: % inhibition @ 5 μM, Syk (h)) was 36% and the inhibition at 20 µM (Syk (h); read-out: % inhibition @ 20 μM, Syk (h)) was -15%. The EC50 (BAF/Tel-FLT1-Q1/sACP) was > 10 µM, the EC50 (BAF/Tel-EphB2-Q2/sACP) was > 10 µM and the IC50 (FGFR2) was > 10 µM. The EC50 (BAF/Tel-JAK2-1.2/sACP) was > 10 µM, the EC50 (BAF/Bcr-Abl-Luc/sACP) was > 10 µM and the IC50 (PDK_1) was > 25 µM. The IC50 (TRKC) was > 10 µM, the IC50 (TSSK1) was > 10 µM and the IC50 (PKC_alpha) was > 10 µM. For the same molecule, the “CSF-1 receptor expression on human monocytes” value (CSF-1 receptor) was “increased”, the EC50 (BAF/Tel-JAK3-S1.2/sACP) was > 10 µM and the EC50 (BAF/Tel-Ros-1.1/sACP) was > 10 µM. For the same molecule, the EC50 (BAF/Tel-TRKC-Q2/sACP) was > 10 µM, the EC50 (BaF-Tel-KDR) was > 10 µM and the inhibition at 0.5 µM (Met (h); read-out: % inhibition @ 0.5 μM, Met (h)) was 0%. The inhibition at 5 µM (Met (h); read-out: % inhibition @ 5 μM, Met (h)) was 4%, the inhibition at 20 µM (Met (h); read-out: % inhibition @ 20 μM, Met (h)) was 37% and the “MMP-9 production by human macrophages” value (MMP-9 [2]) was “downregulated”. The IC50 (Chk1) was > 10 µM, the IC50 (Erk1) was > 10 µM and the EC50 (BAF/Tel-MER-3.2) was > 10 µM. For the same molecule, the EC50 (BAF/Tel-TIE2-1.2/sACP) was > 10 µM, the IC50 (TAK1) was > 10 µM and the “CD206 expression in M2a” value (CD206) was “dose-dependently decreased”. The EC50 (BAF/Tel-FGFR2-Q1/sACP) was > 10 µM, the IC50 (CamKII alpha) was > 10 µM and the IC50 (PHKG2) was > 10 µM. For the same molecule, the EC50 (BAF/bRaf Pim1-1/sACP) was > 10 µM, the IC50 (ROS) was > 10 µM and the IC50 (Plk1) was > 25 µM. The EC50 (BaF-PTC3-RET) was > 10 µM.
